Patent US20240400564A1 (Syndax Pharmaceuticals, Inc, priority 2021, published 2024)

Columns and labels:
[1] = system: MLLr leukemia cell line MV4-11; assay: Cell proliferation assay MV4;11 (CellTiter-Glo, 72 hours); format: cell-based; details: Homo sapiens; MV4-11 cells, 72 hours, CellTiter-Glo; read-out: MV4; 11 IC50
Summary of the method: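 Cells in IMDM/10% FBS, seeded from a 15,000 cells/ml suspension, were exposed for 72 h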

[2] = target: T1, human Menin and N-terminal portion of human MLL (amino acids 4-43) (Homo sapiens, UniProt O00255); assay: Menin-MLL competition assay (HTRF); format: binding; details: 1 hr incubation
T1 construct: H-FL-Menin diluted to 4 nM in assay buffer
T1 sequence (O00255 1-610): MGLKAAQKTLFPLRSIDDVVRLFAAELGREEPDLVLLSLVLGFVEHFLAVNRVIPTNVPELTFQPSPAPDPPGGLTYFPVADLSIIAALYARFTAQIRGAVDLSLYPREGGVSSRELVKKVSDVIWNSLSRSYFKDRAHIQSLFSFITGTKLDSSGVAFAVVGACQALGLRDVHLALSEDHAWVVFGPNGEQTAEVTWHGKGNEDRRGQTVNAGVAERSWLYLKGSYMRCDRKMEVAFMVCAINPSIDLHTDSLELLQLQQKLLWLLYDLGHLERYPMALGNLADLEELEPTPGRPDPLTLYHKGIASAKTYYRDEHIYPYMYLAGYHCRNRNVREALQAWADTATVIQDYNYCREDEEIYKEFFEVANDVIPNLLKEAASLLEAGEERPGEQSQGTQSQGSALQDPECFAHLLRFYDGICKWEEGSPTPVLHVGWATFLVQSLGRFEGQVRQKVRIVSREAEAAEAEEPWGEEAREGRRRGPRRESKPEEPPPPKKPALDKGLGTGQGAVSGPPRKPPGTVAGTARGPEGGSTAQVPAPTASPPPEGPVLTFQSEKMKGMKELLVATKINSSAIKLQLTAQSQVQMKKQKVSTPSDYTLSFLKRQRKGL
Text: Menin-MLL is a competition assay between human Menin and N-terminal portion of human MLL representing amino acids 4-43 of the protein. The interaction between Menin and MLL peptide was monitored by HTRF employing Terbium labeled anti-His6 antibody directed to the N-terminal His6-tag on recombinant Menin and FITC group covalently attached to the MLL peptide. The N-terminal fragment of MLL, retained in all MLL fusion proteins, is involved in the interactions with Menin, and this protein-protein interaction is critical for the MLL fusion proteins mediated leukemogenic transformations.
For IC50 determination test compounds were prepared as 10 mM DMSO stock solutions. Considering DMSO as the vehicle in the assay system. Lower sub-stocks of 50 μM were prepared from the 10 mM stock solution. To test the compounds in assay, 3.16-fold serial dilutions are made in 100% DMSO. Mid-stock of 50×compounds (50 μM) were serially diluted (3.16 fold) in 100% DMSO in Polypropylene plate. In assay plate 1 micro-litre of the previously prepared compound dilution was stamped. H-FL-Menin diluted to 4 nM in assay buffer (50 mM Tris-HCl, pH 7.4, 50 mM NaCl, freshly prepared 1 mM DTT, 0.01% BSA, 0.005% Triton X-100) was pre-incubated with 8 nM anti-His6-Tb for 30 min at room temperature. FITC-MLL-4-43 was diluted to 2 nM in assay buffer and 25 μL was dispensed into each well of the assay plate followed by addition of 25 μl of pre-incubated H-FL-Menin and anti-His6-Tb mixture. Final concentration H-FL-Menin diluted to 1 nM in assay plate with 2 nM anti-His6-Tb and 1 nM FITC-MLL-4-43. After 1 hr incubation at room temperature, the HTRF signal was measured on the Spark multi-label plate reader. Resulting data were captured as a ratio of RFU520/RFU485×1000. The max values were obtained from 0% inhibition in presence of 2% DMSO and the min. values were 100% inhibition in presence of 1 μM reference compound.

hERG = hERG (Homo sapiens, UniProt Q12809); assay: Patch clamp assay (hERG tail currents, whole-cell)
Sequence of hERG (Q12809 whole entry): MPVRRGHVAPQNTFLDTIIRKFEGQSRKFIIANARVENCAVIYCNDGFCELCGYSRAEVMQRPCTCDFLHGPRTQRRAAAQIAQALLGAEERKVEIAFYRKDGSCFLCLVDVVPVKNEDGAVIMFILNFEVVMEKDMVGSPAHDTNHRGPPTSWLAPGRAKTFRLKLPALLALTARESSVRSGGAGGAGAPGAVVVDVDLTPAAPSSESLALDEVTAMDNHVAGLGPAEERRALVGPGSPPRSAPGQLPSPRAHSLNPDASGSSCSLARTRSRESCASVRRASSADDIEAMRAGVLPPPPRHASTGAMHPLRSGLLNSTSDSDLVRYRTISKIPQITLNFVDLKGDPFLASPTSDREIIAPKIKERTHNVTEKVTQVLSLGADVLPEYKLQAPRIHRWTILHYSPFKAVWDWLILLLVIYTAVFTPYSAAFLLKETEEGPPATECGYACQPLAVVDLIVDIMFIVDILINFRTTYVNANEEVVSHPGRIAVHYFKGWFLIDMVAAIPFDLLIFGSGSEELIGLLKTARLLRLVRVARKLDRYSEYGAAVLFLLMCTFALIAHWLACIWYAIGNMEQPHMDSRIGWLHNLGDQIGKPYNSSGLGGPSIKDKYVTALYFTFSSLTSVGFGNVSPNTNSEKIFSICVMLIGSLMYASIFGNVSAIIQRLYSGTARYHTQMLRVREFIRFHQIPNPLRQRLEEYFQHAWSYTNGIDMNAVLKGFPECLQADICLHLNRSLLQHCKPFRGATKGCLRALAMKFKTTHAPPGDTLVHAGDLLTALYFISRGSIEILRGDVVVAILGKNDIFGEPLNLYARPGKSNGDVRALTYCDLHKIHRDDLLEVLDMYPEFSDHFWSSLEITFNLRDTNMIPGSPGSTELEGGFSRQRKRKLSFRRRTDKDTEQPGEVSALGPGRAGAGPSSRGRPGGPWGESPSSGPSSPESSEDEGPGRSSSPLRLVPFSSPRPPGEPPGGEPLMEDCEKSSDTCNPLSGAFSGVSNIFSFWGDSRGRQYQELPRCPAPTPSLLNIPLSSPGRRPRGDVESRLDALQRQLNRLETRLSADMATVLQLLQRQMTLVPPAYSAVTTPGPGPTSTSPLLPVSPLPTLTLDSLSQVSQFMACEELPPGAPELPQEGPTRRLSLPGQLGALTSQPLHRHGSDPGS
Procedure: The 35 mm culture dishes upon which cells were seeded at a density allowing single cells to be recorded were placed on the dish holder of the microscope and continuously perfused (at approximately 1 mL/min) with the bath solution described in section 4.6. All solutions applied to cells including the pipette solution were maintained at room temperature (19° C. to 30° C.). After formation of a Gigaohm seal between the patch electrodes and individual hERG stably transfected HEK 293 cells (pipette resistance range: 2.0 MS to 7.0 MS; seal resistance range: >1GΩ) the cell membrane across the pipette tip was ruptured to assure electrical access to the cell interior (whole-cell patch-configuration). In case the quality of the seal was poor, the process of seal formation was repeated with a different cell and a new pipette. As soon as a stable seal could be established, hERG outward tail currents were measured upon depolarization of the cell membrane to +20 mV for 2 s (activation of channels) from a holding potential of −80 mV and upon subsequent repolarization to −40 mV for 3 s. This voltage protocol (as shown below) was run at least 10 times at intervals of 10 s. If current density was judged to be too low for measurement, another cell was recorded.
During wash-in of the test item the voltage protocol indicated above was run continuously again at 10 s intervals until the steady-state level of block was reached.
The IC50 was determined by fitting the dose response curve with a 2-parameter logistic function (amax=100%).

SMILES	IC50 [1] [nM]	IC50 [2] [nM]	hERG % Remaining (hERG; 3 μM compound)	hERG % Remaining (hERG; 10 μM compound)	hERG % Remaining (hERG; 30 μM compound)	hERG % Remaining (hERG; 100 μM compound)	hERG % Remaining (hERG; 1 μM compound)
CCN(C(=O)c1cc(F)ccc1Oc1cncnc1N1CC2(CCN(C[C@@H]3CC[C@@H](NS(=O)(=O)C4CCOC4)CO3)CC2)C1)C(C)C (stereo partly drawn) [Example 10, N-Ethyl-5-fluoro-N-isopropyl-2-((4-(7-(((2S,5R)-5-((tetrahydrofuran)-3-sulfonamido)tetrahydro-2H-pyran-2-yl)methyl)-2,7-diazaspiro[3.5]nonan-2-yl)pyrimidin-5-yl)oxy)benzamide]	< 100	< 100					
CC(C)N(C(=O)c1cc(F)ccc1Oc1cncnc1N1CC2(CCN(C[C@@H]3CC[C@@H](NS(=O)(=O)C(C)C)CO3)CC2)C1)C(C)C [Example 14, 5-Fluoro-N,N-diisopropyl-2-((4-(7-(((2S,5R)-5-((1-methylethyl)sulfonamido)tetrahydro-2H-pyran-2-yl)methyl)-2,7-diazaspiro[3.5]nonan-2-yl)pyrimidin-5-yl)oxy)benzamide]		< 100	+++ (≥66%)	+++ (≥66%)	++ (233% and ≤66%)	+ (<33%)	
CC(C)N(C(=O)c1cc(F)ccc1Oc1cncnc1N1CC2(CCN(C[C@@H]3CC[C@@H](NS(=O)(=O)C4CC4)CO3)CC2)C1)C(C)C [Example 15, 2-((4-(7-(((2S,5R)-5-(Cyclopropanesulfonamido)tetrahydro-2H-pyran-2-yl)methyl)-2,7-diazaspiro[3.5]nonan-2-yl)pyrimidin-5-yl)oxy)-5-fluoro-N,N-diisopropylbenzamide]		< 100	+++ (≥66%)	+++ (≥66%)	++ (233% and ≤66%)	+ (<33%)	
CC(C)N(C(=O)c1cc(F)ccc1Oc1cncnc1N1CC2(CCN(C[C@@H]3CC[C@@H](NS(=O)(=O)C4COC4)CO3)CC2)C1)C(C)C [Example 16, 5-Fluoro-N,N-diisopropyl-2-((4-(7-(((2S,5R)-5-(oxetane-3-sulfonamido)tetrahydro-2H-pyran-2-yl)methyl)-2,7-diazaspiro[3.5]nonan-2-yl)pyrimidin-5-yl)oxy)benzamide]		< 100		+++ (≥66%)	+++ (≥66%)		
CC(C)N(C(=O)c1cc(F)ccc1Oc1cncnc1N1CC2(CCN(C[C@@H]3CC[C@@H](NS(C)(=O)=O)CO3)CC2)C1)C1CC1 [Example 18, N-Cyclopropyl-5-fluoro-N-isopropyl-2-((4-(7-(((2S,5R)-5-(methylsulfonamido)tetrahydro-2H-pyran-2-yl)methyl)-2,7-diazaspiro[3.5]nonan-2-yl)pyrimidin-5-yl)oxy)benzamide]	< 100	< 100					
CCS(=O)(=O)N[C@@H]1CC[C@@H](CN2CCC3(CC2)CN(c2ncncc2Oc2ccc(F)cc2C(=O)N(C(C)C)C2CC2)C3)OC1 [Example 19, N-Cyclopropyl-2-((4-(7-(((2S,5R)-5-(ethylsulfonamido)tetrahydro-2H-pyran-2-yl)methyl)-2,7-diazaspiro[3.5]nonan-2-yl)pyrimidin-5-yl)oxy)-5-fluoro-N-isopropylbenzamide]		< 100		+++ (≥66%)	++ (233% and ≤66%)		
CC(C)N(C(=O)c1cc(F)ccc1Oc1cncnc1N1CC2(CCN(C[C@@H]3CC[C@@H](NS(=O)(=O)C4CC4)CO3)CC2)C1)C1CC1 [Example 21, 2-((4-(7-(((2S,5R)-5-(Cyclopropanesulfonamido)tetrahydro-2H-pyran-2-yl)methyl)-2,7-diazaspiro[3.5]nonan-2-yl)pyrimidin-5-yl)oxy)-N-cyclopropyl-5-fluoro-N-isopropylbenzamide]		< 100		++ (233% and ≤66%)	+ (<33%)		
CCS(=O)(=O)N[C@@H]1CC[C@@H](CN2CCC3(CC2)CN(c2ncncc2Oc2ccc(F)cc2C(=O)N(C(C)C)[C@H]2CCOC2)C3)OC1 [Example 33, 2-((4-(7-(((2S,5R)-5-(Ethylsulfonamido)tetrahydro-2H-pyran-2-yl)methyl)-2,7-diazaspiro[3.5]nonan-2-yl)pyrimidin-5-yl)oxy)-5-fluoro-N-isopropyl-N-((S)-tetrahydrofuran-3-yl)benzamide]		< 100		+++ (≥66%)	+++ (≥66%)		
CCS(=O)(=O)N[C@@H]1CC[C@@H](CN2CCC3(CC2)CN(c2ncncc2Oc2ccc(F)cc2C(=O)N(CC(F)F)C(C)C)C3)OC1 [Example 34, N-(2,2-Difluoroethyl)-2-((4-(7-(((2S,5R)-5-(ethylsulfonamido)tetrahydro-2H-pyran-2-yl)methyl)-2,7-diazaspiro[3.5]nonan-2-yl)pyrimidin-5-yl)oxy)-5-fluoro-N-isopropylbenzamide]		< 100	+++ (≥66%)	+++ (≥66%)	++ (233% and ≤66%)	+ (<33%)	+++ (≥66%)
CCS(=O)(=O)N[C@@H]1CC[C@@H](CN2CCC3(CC2)CN(c2ncncc2Oc2ccc(F)cc2C(=O)N(CCC#N)C(C)C)C3)OC1 [Example 43, N-(2-Cyanoethyl)-2-((4-(7-(((2S,5R)-5-(ethylsulfonamido)tetrahydro-2H-pyran-2-yl)methyl)-2,7-diazaspiro[3.5]nonan-2-yl)pyrimidin-5-yl)oxy)-5-fluoro-N-isopropylbenzamide]		< 100		+++ (≥66%)	++ (233% and ≤66%)		
CCS(=O)(=O)N[C@@H]1CC[C@@H](CN2CCC3(CC2)CN(c2ncncc2Oc2ccc(F)cc2C(=O)N(C(C)C)C2CC(F)(F)C2)C3)OC1 [Example 44, N-(3,3-Difluorocyclobutyl)-2-((4-(7-(((2S,5R)-5-(ethylsulfonamido)tetrahydro-2H-pyran-2-yl)methyl)-2,7-diazaspiro[3.5]nonan-2-yl)pyrimidin-5-yl)oxy)-5-fluoro-N-isopropylbenzamide]		< 100		+++ (≥66%)	++ (233% and ≤66%)		
CCN(C(=O)c1cc(F)ccc1Oc1cncnc1N1CC2(CCN(C[C@@H]3CC[C@@H](NS(=O)(=O)c4ccccc4)CO3)CC2)C1)C(C)C [Example 45, N-Ethyl-5-fluoro-N-isopropyl-2-((4-(7-(((2S,5R)-5-(phenylsulfonamido)tetrahydro-2H-pyran-2-yl)methyl)-2,7-diazaspiro[3.5]nonan-2-yl)pyrimidin-5-yl)oxy)benzamide]		< 100		++ (233% and ≤66%)	+ (<33%)		
CC(C)N(CC(F)F)C(=O)c1cc(F)ccc1Oc1cncnc1N1CC2(CCN(C[C@@H]3CC[C@@H](NS(=O)(=O)C4CC4)CO3)CC2)C1 [Example 47, 2-((4-(7-(((2S,5R)-5-(Cyclopropanesulfonamido)tetrahydro-2H-pyran-2-yl)methyl)-2,7-diazaspiro[3.5]nonan-2-yl)pyrimidin-5-yl)oxy)-N-(2,2-difluoroethyl)-5-fluoro-N-isopropylbenzamide]		< 100		+++ (≥66%)	++ (233% and ≤66%)		
CCN(C(=O)c1cc(F)ccc1Oc1cncnc1N1CC2(CCN(C[C@@H]3CC[C@@H](NS(=O)(=O)N(C)C)CO3)CC2)C1)C(C)C [Example 49, 2-((4-(7-(((2S,5R)-5-((N,N-Dimethylsulfamoyl)amino)tetrahydro-2H-pyran-2-yl)methyl)-2,7-diazaspiro[3.5]nonan-2-yl)pyrimidin-5-yl)oxy)-N-ethyl-5-fluoro-N-isopropylbenzamide]		< 100		+++ (≥66%)	+++ (≥66%)		
